target: T1, CXCR7 (Homo sapiens, UniProt P25106); assay: PathHunter CHO-K1 CXCR7 b-arrestin assay (agonistic activity); type: cell-based; settings: PathHunter CHO-K1 CXCR7 b-arrestin cell line, 90 minutes at 37° C.
T1 construct: host or cells: CHO-K1 (PathHunter CXCR7 b-arrestin cell line, stably transfected)
T1 sequence (P25106 whole entry): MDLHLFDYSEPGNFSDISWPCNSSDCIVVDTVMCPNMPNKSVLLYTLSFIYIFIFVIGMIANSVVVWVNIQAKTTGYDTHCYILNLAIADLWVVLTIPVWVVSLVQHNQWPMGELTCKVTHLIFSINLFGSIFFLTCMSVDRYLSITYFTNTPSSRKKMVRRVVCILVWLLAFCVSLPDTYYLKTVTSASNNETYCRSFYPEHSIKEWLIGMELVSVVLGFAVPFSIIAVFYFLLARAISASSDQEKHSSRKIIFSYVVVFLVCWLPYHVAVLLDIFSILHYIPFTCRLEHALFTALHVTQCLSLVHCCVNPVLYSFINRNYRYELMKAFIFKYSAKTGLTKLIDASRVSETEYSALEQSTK

Compound	EC50 [nM]
O=C(Nc1cccc(CN2CCC(F)(C(=O)NC3CCCCC3)CC2)c1)c1cccc(C(F)(F)F)n1 [Example 4.008, 6-Trifluoromethyl-pyridine-2-carboxylic acid [3-(4-cyclohexylcarbamoyl-4-fluoro-piperidin-1-ylmethyl)-phenyl]-amide]	71
CC(C)(C)NC(=O)C1CCN(Cc2cc(NC(=O)c3ccc(F)cc3)cs2)CC1 [Example 3.009, 1-[4-(4-Fluoro-benzoylamino)-thiophen-2-ylmethyl]-piperidine-4-carboxylic acid tert-butylamide]	4
Cc1cncc(C(=O)Nc2cccc(CN3CCC(C(=O)N4CCC(C)(C)C4)CC3)c2)c1 [Example 2.061]	64
N-[3-(4-Cyclopropylcarbamoyl-piperidin-1-ylmethyl)-phenyl]-6-methyl-nicotinamide [Example 1.202]	145
O=C(Nc1cccc(CN2CCC(C(=O)NC3CCCC3)CC2)c1)c1ccc(Cl)cc1 [Example 2.001, 1-[3-(4-Chloro-benzoylamino)-benzyl]-piperidine-4-carboxylic acid cyclopentylamide]	0.9
O=C(Nc1cccc(CN2CCC(C(=O)NC3CCC(O)CC3)CC2)c1)c1ccc(Cl)cc1 (stereo not drawn) [Example 2.011]	241
Cc1cncc(C(=O)Nc2cccc(CN3CCC(C)(C(=O)NC4CCCCC4)CC3)c2)c1 [Example 4.003, N-[3-(4-Cyclohexylcarbamoyl-4-methyl-piperidin-1-ylmethyl)-phenyl]-5-methyl-nicotinamide]	197
O=C(Nc1cccc(CN2CCC(C(=O)NCc3ccccc3)CC2)c1)c1cccs1 [Example 2.076]	780
Cc1cncc(C(=O)Nc2cccc(CN3CCC(C)(C(=O)NC(C)(C)C)CC3)c2)c1 [Example 4.004, N-[3-(4-tert-Butylcarbamoyl-4-methyl-piperidin-1-ylmethyl)-phenyl]-5-methyl-nicotinamide]	59
CC1(C(=O)NC2CCCCC2)CCN(Cc2cccc(NC(=O)c3cccc(C(F)(F)F)n3)c2)CC1 [Example 4.010, 6-Trifluoromethyl-pyridine-2-carboxylic acid [3-(4-cyclohexylcarbamoyl-4-methyl-piperidin-1-ylmethyl)-phenyl]-amide]	57
N-[3-(4-tert-Butylcarbamoyl-piperidin-1-ylmethyl)-phenyl]-5-methoxy-nicotinamide [Example 4.014]	8
O=C(Nc1cccc(CN2CCC(C(=O)NCC3CCCC3)CC2)c1)c1ccc(Cl)cc1 [Example 2.010]	4
O=C(Nc1cccc(CN2CCC(C(=O)NC3CCc4ccccc43)CC2)c1)c1ccc(Cl)cc1 (racemic) [Example 2.020]	21
rac-2-Methyl-pyrimidine-4-carboxylic acid {3-[1-(4-cyclohexylcarbamoyl-piperidin-1-yl)-ethyl]-phenyl}-amide [Example 1.197]	15
COc1cncc(C(=O)Nc2cccc(CN3CCC(C(=O)NC4CCCCC4)CC3)c2)c1 [Example 4.012, N-[3-(4-Cyclohexylcarbamoyl-piperidin-1-ylmethyl)-phenyl]-5-methoxy-nicotinamide]	10
CC(C)(C)NC(=O)C1CCN(Cc2csc(NC(=O)c3ccc(F)cc3)c2)CC1 [Example 3.008, 1-[5-(4-Fluoro-benzoylamino)-thiophen-3-ylmethyl]-piperidine-4-carboxylic acid tert-butylamide]	3
CC1CCC(NC(=O)C2CCN(Cc3cccc(NC(=O)c4cccc(C(F)(F)F)n4)c3)CC2)CC1 (stereo not drawn) [Example 2.083]	3
CC(C)(C)NC(=O)C1(C)CCN(Cc2cccc(NC(=O)c3cccc(C(F)(F)F)n3)c2)CC1 [Example 4.011, 6-Trifluoromethyl-pyridine-2-carboxylic acid [3-(4-tert-butylcarbamoyl-4-methyl-piperidin-1-ylmethyl)-phenyl]-amide]	13
Cc1cncc(C(=O)Nc2cc(CN3CCC(C(=O)NC(C)(C)C)CC3)cs2)c1 [Example 3.012, N-[4-(4-tert-Butylcarbamoyl-piperidin-1-ylmethyl)-thiophen-2-yl]-5-methyl-nicotinamide]	44
CN(C)C(=O)C1CCN(Cc2cccc(NC(=O)c3cccs3)c2)CC1 [Example 2.073]	155

Compound	EC50 [nM]
O=C(Nc1cccc(CN2CCC(C(=O)NC3CCCCC3)CC2)c1)c1cccnc1 [Example 1.003, N-[3-(4-Cyclohexylcarbamoyl-piperidin-1-ylmethyl)-phenyl]-nicotinamide]	23
Cc1cncc(C(=O)Nc2cccc(CN3CCC(C(=O)N4CC[C@@H](F)C4)CC3)c2)c1 [Example 2.052]	121
CCC(C)(C)NC(=O)C1CCN(Cc2cccc(NC(=O)c3cncc(C)c3)c2)CC1 [Example 2.059]	3
CCN(CC)C(=O)C1CCN(Cc2cccc(NC(=O)c3ccc(Cl)cc3)c2)CC1 [Example 2.009]	1
O=C(Nc1cccc(CN2CCC(C(=O)NCc3ccccn3)CC2)c1)c1ccc(Cl)cc1 [Example 2.022]	20
CCN(CC)C(=O)C1CCN(Cc2cccc(NC(=O)c3cccs3)c2)CC1 [Example 2.074]	70
COc1ccccc1CNC(=O)C1CCN(Cc2cccc(NC(=O)c3ccc(Cl)cc3)c2)CC1 [Example 2.026]	15
CCCCCCN(C)C(=O)C1CCN(Cc2cccc(NC(=O)c3cccc(C(F)(F)F)n3)c2)CC1 [Example 2.079]	226
O=C(Nc1cccc(CN2CCC(C(=O)NC3CCCc4ccccc43)CC2)c1)c1ccc(Cl)cc1 (racemic) [Example 2.019]	40
Cc1cncc(C(=O)Nc2cccc(CN3CCC(C(=O)NC4CCC4)CC3)c2)c1 [Example 2.041]	13
Cc1cncc(C(=O)Nc2cccc(CN3CCC(C(=O)N4CCC(F)(F)C4)CC3)c2)c1 [Example 2.054]	109
CC(C)(C)C1CCC(NC(=O)C2CCN(Cc3cccc(NC(=O)c4ccc(Cl)cc4)c3)CC2)CC1 (stereo not drawn) [Example 2.012]	1050
O=C(Nc1cccc(CN2CCC(C(=O)NCc3nccs3)CC2)c1)c1ccc(Cl)cc1 [Example 2.024]	32
Cc1cncc(C(=O)Nc2cccc(CN3CCC(C(=O)NC(C)(C)C)CC3)c2)c1 [Example 2.039]	3
CCC(C)(C)NC(=O)C1CCCN(Cc2cccc(NC(=O)c3cncc(C)c3)c2)CC1 (racemic) [Example 2.085]	68
CC(C)(C)CNC(=O)C1CCN(Cc2cccc(NC(=O)c3cccc(C(F)(F)F)n3)c2)CC1 [Example 2.070]	6
CCC(C)NC(=O)C1CCCN(Cc2cccc(NC(=O)c3cccc(C(F)(F)F)n3)c2)CC1 (racemic) [Example 2.087]	6
Cc1cncc(C(=O)Nc2cccc(CN3CCC(F)(C(=O)NC4CCCCC4)CC3)c2)c1 [Example 4.001, N-[3-(4-Cyclohexylcarbamoyl-4-fluoro-piperidin-1-ylmethyl)-phenyl]-5-methyl-nicotinamide]	46
CC(C)(C)NC(=O)C1CCN(Cc2cccc(NC(=O)c3ccc(Cl)cc3)c2)CC1 [Example 2.004]	1

Reference: US20130345199A1, “1-[M-CARBOXAMIDO(HETERO)ARYL-METHYL]-PIPERIDINE-4-CARBOXAMIDE DERIVATIVES” (Actelion Pharmaceuticals Ltd., priority 2012, published 2013)
